Experimental data reported in patent US9738649B2 (priority 2006, dated 2017).
Counter-ions that a name gives are not always drawn.

These compounds were tested against rat TRPV1 (Rattus norvegicus (Rat), UniProt O35433). Details: read-out: Rat IC50.
Chain of rat TRPV1 (O35433 whole entry): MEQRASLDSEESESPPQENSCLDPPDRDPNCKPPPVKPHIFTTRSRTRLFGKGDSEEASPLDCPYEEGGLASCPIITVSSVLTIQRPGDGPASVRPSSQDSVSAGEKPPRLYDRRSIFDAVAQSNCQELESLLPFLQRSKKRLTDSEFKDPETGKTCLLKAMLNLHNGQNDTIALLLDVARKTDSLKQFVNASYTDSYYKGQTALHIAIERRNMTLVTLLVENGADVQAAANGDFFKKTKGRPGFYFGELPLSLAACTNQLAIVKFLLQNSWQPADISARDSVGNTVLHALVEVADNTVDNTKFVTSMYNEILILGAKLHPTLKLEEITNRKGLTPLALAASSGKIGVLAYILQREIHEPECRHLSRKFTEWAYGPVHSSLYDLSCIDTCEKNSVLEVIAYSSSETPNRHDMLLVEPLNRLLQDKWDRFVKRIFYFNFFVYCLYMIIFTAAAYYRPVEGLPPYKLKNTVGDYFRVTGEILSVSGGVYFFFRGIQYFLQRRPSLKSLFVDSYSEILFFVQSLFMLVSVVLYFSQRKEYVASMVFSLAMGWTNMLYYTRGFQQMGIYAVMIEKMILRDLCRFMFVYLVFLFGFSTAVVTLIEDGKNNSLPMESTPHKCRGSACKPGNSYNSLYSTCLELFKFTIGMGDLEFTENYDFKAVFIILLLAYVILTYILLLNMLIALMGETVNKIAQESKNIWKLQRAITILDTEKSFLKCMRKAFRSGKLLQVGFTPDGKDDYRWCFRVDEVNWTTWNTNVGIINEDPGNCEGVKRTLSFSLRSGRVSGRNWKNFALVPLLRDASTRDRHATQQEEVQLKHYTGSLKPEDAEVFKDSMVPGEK
Description: Biological Testing: Functional Assay: Block of Capsaicin-Induced Ca^2+ Influx A. Human Assay
Cells were passaged frequently, every 3-5 days, to avoid overgrowth, depletion of essential medium components, or acidic medium exposure. Cells were passaged using a brief wash in 0.05% trypsin with 1 mM EDTA, followed by dissociation in divalent-free phosphate-buffered saline (Hyclone #SH30028.02). […] The assay buffer was composed of 130 mM NaCl, 2 mM KCl, 2 mM MgCl2, 10 mM HEPES, 5 mM glucose, and either 2 mM or 20 μM CaCl2. On the day of the experiment, the culture medium was replaced with 2 mM calcium assay buffer using an automated plate washer (ELx405; Biotek, VT). […] After loading the cells, the dye solution was replaced with 50 μL/well of 20 μM calcium assay buffer using the ELx405 plate washer. Test compounds (50 μL/well) were added to the plate and incubated for 30 min. […] The IC50 values were determined. […] The contents of the wells were mixed 3 times (40 μL mix volume) immediately after the additions were made. Concentration dependence of block was determined by exposing each well of cells in duplicate rows of a 96 well plate to a serial dilution of test compound. The concentration series usually started at 10 μM with a three-fold serial decrement in concentration. The magnitude of the capsaicin response was determined by measuring the change in fluo3 fluorescence before and 100 seconds after the addition of the agonist. Data were analyzed using a non-linear regression program (Origin; OriginLab, MA). IC50 values shown are the average (mean) of the results obtained.
The assay was performed as described above, using HEK293 cells transfected with rat TRPV1 (rTRPV1/HEK293). […] IC50 values shown are the average (mean) of the results obtained.

| Structure (SMILES) | IC50 |
| --- | --- |
| CN(C)c1nc2c(c(Nc3ccc(C(F)(F)F)nc3)n1)CCN(c1ncccc1C(F)(F)F)CC2 [Example 43B, N^2,N^2-Dimethyl-N^4-(6-trifluoromethyl-pyridin-3-yl)-7-(3-trifluoro-methyl-pyridin-2-yl)-6,7,8,9-tetrahydro-5H-pyrimido[4,5-d]azepine-2,4-diamine trifluoroacetic acid salt] | 390 nM |
| O=C(O)C1CCN(c2nc3c(c(Nc4ccc(C(F)(F)F)cc4)n2)CCN(c2ncccc2C(F)(F)F)CC3)CC1 [Example 57B, 1-[4-(4-Trifluoromethyl-phenylamino)-7-(3-trifluoromethyl-pyridin-2-yl)-6,7,8,9-tetrahydro-5H-pyrimido[4,5-d]azepin-2-yl]-piperidine-4-carboxylic acid trifluoroacetic acid salt] | 5500 nM |
| FC(F)(F)c1ccc(Nc2nc(NCCN3CCCCC3)nc3c2CCN(c2ncccc2C(F)(F)F)CC3)cc1 [Example 58B, N^2-(2-Piperidin-1-yl-ethyl)-N^4-(4-trifluoromethyl-phenyl)-7-(3-trifluoro-methyl-pyridin-2-yl)-6,7,8,9-tetrahydro-5H-pyrimido[4,5-d]azepine-2,4-diamine trifluoroacetic acid salt] | 1500 nM |
| FC(F)(F)c1ccc(Nc2nc(NC3CCOCC3)nc3c2CCN(c2ncccc2C(F)(F)F)CC3)cc1 [Example 61B, N^2-(Tetrahydro-pyran-4-yl)-N^4-(4-trifluoromethyl-phenyl)-7-(3-trifluoro-methyl-pyridin-2-yl)-6,7,8,9-tetrahydro-5H-pyrimido[4,5-d]azepine-2,4-diamine trifluoroacetic acid salt] | 230 nM |
| CN(C)c1nc2c(c(NCc3ccc(Cl)c(Cl)c3)n1)CCN(c1ncccc1C(F)(F)F)CC2 [Example 73B, N^4-(3,4-Dichloro-benzyl)-N^2,N^2-dimethyl-7-(3-trifluoromethyl-pyridin-2-yl)-6,7,8,9-tetrahydro-5H-pyrimido[4,5-d]azepine-2,4-diamine trifluoroacetic acid salt] | 6700 nM |
